{"source": "PubChem BioAssay AID1845202", "about": "(Molecular Pharmacology Branch, DTP, NCI, 2023)", "test_system": "DMS 114 tumor spheroids, viability % test/control", "assay": "Anticancer human tumor DMS 114 cell line growth inhibition;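 on all read-outs here: spheroids exposed to compounds for 7 days before read-out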;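 on viability, T/C: luminescence used as a proxy for viable cells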", "conditions": "spheroids with HUVEC and MSC; for IC50: curve of first compound; for viability, T/C: stronger effect = lower value", "summary_of_the_method": "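Complex spheroids of malignant cells with endothelial cells and mesenchymal stem cells; agents alone or combined, from near clinical Cmax (or 10 microM if unknown) down in half-log steps, 0.25% DMSO final.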"}
{"smiles": "Cc1sc2c(c1C)C(c1ccc(Cl)cc1)=NC(CC(=O)Nc1ccc(O)cc1)c1nnc(C)n1-2", "note": "(stereo not given) + COc1cc2c(cc1O)CCNC21CSC2c3c(OC(C)=O)c(C)c4c(c3C(COC1=O)N1C(O)C3Cc5cc(C)c(OC)c(O)c5C(C21)N3C)OCO4", "values": [{"measurement": "IC50", "setting": "second compound 30 pM", "result": 165, "unit": "nM"}, {"measurement": "IC50", "setting": "second compound 94.9 pM", "result": 97.3, "unit": "nM"}, {"measurement": "IC50", "setting": "second compound 0.0003 µM", "result": "< 9.49", "unit": "nM"}, {"measurement": "IC50", "setting": "second compound 0.000949 µM", "result": "< 9.49", "unit": "nM"}, {"measurement": "IC50", "setting": "second compound 0.003 µM", "result": "< 9.49", "unit": "nM"}, {"measurement": "viability, T/C", "setting": "second compound 30 pM, first compound 0.00949 µM", "result": 107, "unit": "%"}, {"measurement": "viability, T/C", "setting": "second compound 30 pM, first compound 0.03 µM", "result": 102, "unit": "%"}, {"measurement": "viability, T/C", "setting": "second compound 30 pM, first compound 0.0949 µM", "result": 65.1, "unit": "%"}, {"measurement": "viability, T/C", "setting": "second compound 30 pM, first compound 0.3 µM", "result": 33.3, "unit": "%"}, {"measurement": "viability, T/C", "setting": "second compound 30 pM, first compound 0.949 µM", "result": 5.12, "unit": "%"}, {"measurement": "viability, T/C", "setting": "second compound 30 pM, first compound 3 µM", "result": 3.29, "unit": "%"}, {"measurement": "viability, T/C", "setting": "second compound 94.9 pM, first compound 0.00949 µM", "result": 101, "unit": "%"}, {"measurement": "viability, T/C", "setting": "second compound 94.9 pM, first compound 0.03 µM", "result": 80.1, "unit": "%"}, {"measurement": "viability, T/C", "setting": "second compound 94.9 pM, first compound 0.0949 µM", "result": 55.4, "unit": "%"}, {"measurement": "viability, T/C", "setting": "second compound 94.9 pM, first compound 0.3 µM", "result": 12.1, "unit": "%"}, {"measurement": "viability, T/C", "setting": "second compound 94.9 pM, first compound 0.949 µM", "result": 5.83, "unit": "%"}, {"measurement": "viability, T/C", "setting": "second compound 94.9 pM, first compound 3 µM", "result": 1.91, "unit": "%"}, {"measurement": "viability, T/C", "setting": "second compound 0.0003 µM, first compound 0.00949 µM", "result": 41.7, "unit": "%"}, {"measurement": "viability, T/C", "setting": "second compound 0.0003 µM, first compound 0.03 µM", "result": 27.1, "unit": "%"}, {"measurement": "viability, T/C", "setting": "second compound 0.0003 µM, first compound 0.0949 µM", "result": 13.1, "unit": "%"}, {"measurement": "viability, T/C", "setting": "second compound 0.0003 µM, first compound 0.3 µM", "result": 5.79, "unit": "%"}, {"measurement": "viability, T/C", "setting": "second compound 0.0003 µM, first compound 0.949 µM", "result": 1.67, "unit": "%"}, {"measurement": "viability, T/C", "setting": "second compound 0.0003 µM, first compound 3 µM", "result": 0.76, "unit": "%"}, {"measurement": "viability, T/C", "setting": "second compound 0.000949 µM, first compound 0.00949 µM", "result": 3.12, "unit": "%"}, {"measurement": "viability, T/C", "setting": "second compound 0.000949 µM, first compound 0.03 µM", "result": 1.58, "unit": "%"}, {"measurement": "viability, T/C", "setting": "second compound 0.000949 µM, first compound 0.0949 µM", "result": 1.35, "unit": "%"}, {"measurement": "viability, T/C", "setting": "second compound 0.000949 µM, first compound 0.3 µM", "result": 0.73, "unit": "%"}, {"measurement": "viability, T/C", "setting": "second compound 0.000949 µM, first compound 0.949 µM", "result": 0.39, "unit": "%"}, {"measurement": "viability, T/C", "setting": "second compound 0.000949 µM, first compound 3 µM", "result": 0.19, "unit": "%"}, {"measurement": "viability, T/C", "setting": "second compound 0.003 µM, first compound 0.00949 µM", "result": 0.2, "unit": "%"}, {"measurement": "viability, T/C", "setting": "second compound 0.003 µM, first compound 0.03 µM", "result": 0.19, "unit": "%"}, {"measurement": "viability, T/C", "setting": "second compound 0.003 µM, first compound 0.0949 µM", "result": 0.17, "unit": "%"}, {"measurement": "viability, T/C", "setting": "second compound 0.003 µM, first compound 0.3 µM", "result": 0.13, "unit": "%"}, {"measurement": "viability, T/C", "setting": "second compound 0.003 µM, first compound 0.949 µM", "result": 0.16, "unit": "%"}, {"measurement": "viability, T/C", "setting": "second compound 0.003 µM, first compound 3 µM", "result": 0.3, "unit": "%"}]}
{"smiles": "COc1cc(C)[nH]c(=O)c1CN1CCc2c(Cl)cc(C(OC)C3COC3)c(Cl)c2C1=O", "note": "(stereo not given) + Cn1nnc2c(C(N)=O)ncn2c1=O", "values": [{"measurement": "IC50", "setting": "second compound 1 µM", "result": "> 10000", "unit": "nM"}, {"measurement": "IC50", "setting": "second compound 3.16 µM", "result": "> 10000", "unit": "nM"}, {"measurement": "IC50", "setting": "second compound 10 µM", "result": "> 10000", "unit": "nM"}, {"measurement": "IC50", "setting": "second compound 31.6 µM", "result": "> 10000", "unit": "nM"}, {"measurement": "IC50", "setting": "second compound 100 µM", "result": "> 10000", "unit": "nM"}, {"measurement": "viability, T/C", "setting": "second compound 1 µM, first compound 0.0316 µM", "result": 103, "unit": "%"}, {"measurement": "viability, T/C", "setting": "second compound 1 µM, first compound 0.1 µM", "result": 93.3, "unit": "%"}, {"measurement": "viability, T/C", "setting": "second compound 1 µM, first compound 0.316 µM", "result": 82.7, "unit": "%"}, {"measurement": "viability, T/C", "setting": "second compound 1 µM, first compound 1 µM", "result": 78.4, "unit": "%"}, {"measurement": "viability, T/C", "setting": "second compound 1 µM, first compound 3.16 µM", "result": 73, "unit": "%"}, {"measurement": "viability, T/C", "setting": "second compound 1 µM, first compound 10 µM", "result": 71, "unit": "%"}, {"measurement": "viability, T/C", "setting": "second compound 3.16 µM, first compound 0.0316 µM", "result": 109, "unit": "%"}, {"measurement": "viability, T/C", "setting": "second compound 3.16 µM, first compound 0.1 µM", "result": 97.1, "unit": "%"}, {"measurement": "viability, T/C", "setting": "second compound 3.16 µM, first compound 0.316 µM", "result": 91, "unit": "%"}, {"measurement": "viability, T/C", "setting": "second compound 3.16 µM, first compound 1 µM", "result": 82.3, "unit": "%"}, {"measurement": "viability, T/C", "setting": "second compound 3.16 µM, first compound 3.16 µM", "result": 76.5, "unit": "%"}, {"measurement": "viability, T/C", "setting": "second compound 3.16 µM, first compound 10 µM", "result": 71.7, "unit": "%"}, {"measurement": "viability, T/C", "setting": "second compound 10 µM, first compound 0.0316 µM", "result": 115, "unit": "%"}, {"measurement": "viability, T/C", "setting": "second compound 10 µM, first compound 0.1 µM", "result": 99.5, "unit": "%"}, {"measurement": "viability, T/C", "setting": "second compound 10 µM, first compound 0.316 µM", "result": 93.1, "unit": "%"}, {"measurement": "viability, T/C", "setting": "second compound 10 µM, first compound 1 µM", "result": 82, "unit": "%"}, {"measurement": "viability, T/C", "setting": "second compound 10 µM, first compound 3.16 µM", "result": 80.5, "unit": "%"}, {"measurement": "viability, T/C", "setting": "second compound 10 µM, first compound 10 µM", "result": 70.1, "unit": "%"}, {"measurement": "viability, T/C", "setting": "second compound 31.6 µM, first compound 0.0316 µM", "result": 102, "unit": "%"}, {"measurement": "viability, T/C", "setting": "second compound 31.6 µM, first compound 0.1 µM", "result": 103, "unit": "%"}, {"measurement": "viability, T/C", "setting": "second compound 31.6 µM, first compound 0.316 µM", "result": 86.5, "unit": "%"}, {"measurement": "viability, T/C", "setting": "second compound 31.6 µM, first compound 1 µM", "result": 84.2, "unit": "%"}, {"measurement": "viability, T/C", "setting": "second compound 31.6 µM, first compound 3.16 µM", "result": 70.1, "unit": "%"}, {"measurement": "viability, T/C", "setting": "second compound 31.6 µM, first compound 10 µM", "result": 67.5, "unit": "%"}, {"measurement": "viability, T/C", "setting": "second compound 100 µM, first compound 0.0316 µM", "result": 90.7, "unit": "%"}, {"measurement": "viability, T/C", "setting": "second compound 100 µM, first compound 0.1 µM", "result": 95.6, "unit": "%"}, {"measurement": "viability, T/C", "setting": "second compound 100 µM, first compound 0.316 µM", "result": 73.3, "unit": "%"}, {"measurement": "viability, T/C", "setting": "second compound 100 µM, first compound 1 µM", "result": 64.3, "unit": "%"}, {"measurement": "viability, T/C", "setting": "second compound 100 µM, first compound 3.16 µM", "result": 61.2, "unit": "%"}, {"measurement": "viability, T/C", "setting": "second compound 100 µM, first compound 10 µM", "result": 57.1, "unit": "%"}]}
